Active and inactive are the calls of the source. The calls are words filed in the database; no cut-off is given here.
Experiments:
Salmonella typhimurium [1] = test: Mutagenicity in Salmonella typhimurium TA98 assessed as revertant colonies at 6 to 500 ug/plate by Ames test in absence of mouse liver S9 fraction; type: toxicity, organism-based; details: salmonella enterica subsp. enterica serovar typhimurium
Mus musculus [2] = organism: Mus musculus; test: Induction of quinone reductase specific activity in mouse mutant BpRc1 cells expressing defective translocator receptor Arnt using 2,6-DCIP as substrate at 10 uM measured for 1 min relative to control; type: cell-based
Mus musculus [3] = organism: Mus musculus; test: Induction of quinone reductase specific activity in mouse Hepa1c1c7 cells using 2,6-DCIP as substrate at 10 uM measured for 1 min relative to control; type: cell-based
Mus musculus [4] = organism: Mus musculus; test: Ratio of quinone reductase specific activity in mouse Hepa1c1c7 cells to quinone reductase specific activity in mouse mutant BpRc1 cells; type: cell-based
Salmonella typhimurium [5] = test: Mutagenicity in Salmonella typhimurium TA98 assessed as revertant colonies at 6 to 500 ug/plate by Ames test in presence of mouse liver S9 fraction; type: toxicity, organism-based; details: salmonella enterica subsp. enterica serovar typhimurium
Salmonella typhimurium [6] = test: Mutagenicity in Salmonella typhimurium TA98 assessed as revertant colonies at 0.02 to 2 ug/plate by Ames test in presence of mouse liver S9 fraction; type: toxicity, organism-based; details: salmonella enterica subsp. enterica serovar typhimurium
Salmonella typhimurium [7] = test: Mutagenicity in Salmonella typhimurium TA98 assessed as revertant colonies at 0.02 to 2 ug/plate by Ames test in absence of mouse liver S9 fraction; type: toxicity, organism-based; details: salmonella enterica subsp. enterica serovar typhimurium
HT-29 = test: Cytotoxicity against human HT-29 cells at 100 uM after 24 hrs by SRB assay; type: functional, cell-based
MCF7 = test: Cytotoxicity against human MCF7 cells at 100 uM after 24 hrs by SRB assay; type: functional, cell-based
Salmonella typhimurium [8] = test: Mutagenicity in Salmonella typhimurium TA98 assessed as revertant colonies at 0.5 to 30 ug/plate by Ames test in absence of mouse liver S9 fraction; type: toxicity, organism-based; details: salmonella enterica subsp. enterica serovar typhimurium
Salmonella typhimurium [9] = test: Mutagenicity in Salmonella typhimurium TA98 assessed as revertant colonies at 0.5 to 30 ug/plate by Ames test in presence of mouse liver S9 fraction; type: toxicity, organism-based; details: salmonella enterica subsp. enterica serovar typhimurium
Rattus norvegicus [10] = test: Induction of glutathione S-transferase activity in cytosolic fraction of Wistar rat liver at 15 mg/kg/day, po for two weeks using CDNB as substrate measured for 1 min relative to control; type: functional
Rattus norvegicus [11] = test: Induction of CYP450 activity in microsomal fraction of Wistar rat liver at 15 mg/kg/day, po for two weeks using 7-ethoxyresorufine as substrate measured for 5 mins relative to control; type: ADME, organism-based; details: in vivo
[12] = Chemoprotective index, ratio of IC50 for mouse Hepa1c1c7 cells to CD for quinone reductase activity in mouse Hepa1c1c7 cells
[13] = Cytotoxicity against mouse mutant BpRc1 cells after 48 hrs by SRB assay; type: cell-based; details: BPrc1, 48 h
Salmonella typhimurium [14] = test: Mutagenicity in Salmonella typhimurium TA98 assessed as revertant colonies at 0.5 to 40 ug/plate by Ames test in presence of mouse liver S9 fraction; type: toxicity, organism-based; details: salmonella enterica subsp. enterica serovar typhimurium
Salmonella typhimurium [15] = test: Mutagenicity in Salmonella typhimurium TA98 assessed as revertant colonies at 0.5 to 40 ug/plate by Ames test in absence of mouse liver S9 fraction; type: toxicity, organism-based; details: salmonella enterica subsp. enterica serovar typhimurium
Rattus norvegicus [16] = test: Induction of glutathione S-transferase activity in cytosolic fraction of Wistar rat colon at 15 mg/kg/day, po for two weeks using CDNB as substrate measured for 1 min relative to control; type: functional
Mus musculus [17] = organism: Mus musculus; test: Induction of quinone reductase specific activity in mouse Hepa1c1c7 cells assessed as concentration required to double enzyme specific activity using 2,6-DCIP as substrate measured for 1 min; type: cell-based
Mus musculus [18] = organism: Mus musculus; test: Ratio of induction of quinone reductase specific activity in mouse mutant BpRc1 cells to mouse Hepa1c1c7 cells; type: cell-based
Rattus norvegicus [19] = test: Toxicity in Wistar rat assessed as change in body weight at 15 mg/kg/day, po for two weeks; type: organism-based; details: in vivo
[20] = Toxicity in Wistar rat assessed as survival at 15 mg/kg/day, po for two weeks; type: organism-based; details: in vivo
Rattus norvegicus [21] = test: Induction of quinone reductase activity in cytosolic fraction of Wistar rat liver at 15 mg/kg/day, po for two weeks using 2,6-DCIP as substrate measured for 1 min relative to control; type: functional
[22] = Chemoprotective index, ratio of IC50 for mouse mutant BpRc1 cells to CD for quinone reductase activity in mouse mutant BpRc1 cells
Mus musculus [23] = organism: Mus musculus; test: Induction of quinone reductase activity in mouse mutant BpRc1 cells using 2,6-DCIP as substrate measured for 1 min; type: cell-based
Rattus norvegicus [24] = test: Induction of quinone reductase activity in cytosolic fraction of Wistar rat colon at 15 mg/kg/day, po for two weeks using 2,6-DCIP as substrate at 10 uM measured for 1 min relative to control; type: functional
Rattus norvegicus [25] = test: Toxicity in Wistar rat assessed as change in behaviors at 15 mg/kg/day, po for two weeks; type: organism-based; details: in vivo
[26] = Cytotoxicity against mouse Hepa1c1c7 cells after 48 hrs by SRB assay; type: cell-based; details: Hepa-1c1c7, 48 h
[27] = biological target: T1, Nuclear factor erythroid 2-related factor 2 (Mus musculus) (UniProt Q60795); test: Induction of Nrf2 nuclear translocation in mouse Hepa1c1c7 cells assessed as protein accumulation in nucleus at 20 uM by DAPI staining based immunofluorescence assay; type: cell-based
T1 sequence (whole entry): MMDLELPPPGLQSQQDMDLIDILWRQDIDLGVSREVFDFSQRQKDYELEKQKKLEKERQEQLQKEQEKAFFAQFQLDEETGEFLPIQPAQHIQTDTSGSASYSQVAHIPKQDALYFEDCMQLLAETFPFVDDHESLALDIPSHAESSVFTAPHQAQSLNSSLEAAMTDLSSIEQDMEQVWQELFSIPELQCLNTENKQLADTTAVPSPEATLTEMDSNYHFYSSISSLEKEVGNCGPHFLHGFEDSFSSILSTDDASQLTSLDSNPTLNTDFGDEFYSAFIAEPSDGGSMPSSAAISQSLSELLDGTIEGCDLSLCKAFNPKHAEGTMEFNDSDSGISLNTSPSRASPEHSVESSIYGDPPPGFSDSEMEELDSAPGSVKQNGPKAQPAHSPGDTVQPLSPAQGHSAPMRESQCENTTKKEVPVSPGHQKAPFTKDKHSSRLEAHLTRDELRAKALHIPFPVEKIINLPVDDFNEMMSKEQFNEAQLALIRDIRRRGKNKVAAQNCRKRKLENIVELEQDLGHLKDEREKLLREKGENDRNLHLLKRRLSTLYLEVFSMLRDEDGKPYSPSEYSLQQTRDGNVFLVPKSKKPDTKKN

Rattus norvegicus [28] = test: Induction of CYP450 activity in microsomal fraction of Wistar rat colon at 15 mg/kg/day, po for two weeks using 7-ethoxyresorufine as substrate measured for 5 mins; type: ADME, organism-based; details: in vivo

With `O=C(/C=C/c1ccc2c(c1)no[n+]2[O-])c1ccccc1O` the Activity (Salmonella typhimurium [1]) was “Non-toxic”, the fold change (FC) (Mus musculus [2]) was 1.18 and the fold change (FC) (Mus musculus [3]) was 1.39. For the same molecule, the Ratio (Mus musculus [4]) was 1.18 and the Activity (Salmonella typhimurium [5]) was “Non-toxic”.
For `Cc1c(/C=C/C(=O)c2ccccc2)no[n+]1[O-]`, the Activity (Salmonella typhimurium [6]) was “Non-toxic”, the Activity (Salmonella typhimurium [7]) was “Non-toxic” and the fold change (FC) (Mus musculus [2]) was 1.01. The Activity (HT-29) was “Active”, the fold change (FC) (Mus musculus [3]) was 1.35 and the Activity (MCF7) was “Active”. The Ratio (Mus musculus [4]) was 1.34.
For `O=C(/C=C/c1c(-c2ccccc2)no[n+]1[O-])c1ccc2ccccc2c1`, the Activity (Salmonella typhimurium [8]) was “Non-toxic”, the fold change (FC) (Mus musculus [2]) was 1.06 and the fold change (FC) (Mus musculus [3]) was 2.49. For the same molecule, the Ratio (Mus musculus [4]) was 2.35 and the Activity (Salmonella typhimurium [9]) was “Non-toxic”.
For `Cc1c(/C=C/C(=O)c2ccccc2O)no[n+]1[O-]`, the Activity (Salmonella typhimurium [1]) was “Non-toxic”, the fold change (FC) (Mus musculus [2]) was 1.18 and the Activity (HT-29) was “Active”. For the same molecule, the fold change (FC) (Mus musculus [3]) was 1.49, the Activity (MCF7) was “Active” and the Ratio (Mus musculus [4]) was 1.26. For the same molecule, the Activity (Salmonella typhimurium [5]) was “Non-toxic”.
For `O=C(/C=C/c1ccc2c(c1)no[n+]2[O-])c1ccc2ccccc2c1`, the fold change (FC) (Mus musculus [2]) was 1.01, the Activity (HT-29) was “Active” and the fold change (FC) (Mus musculus [3]) was 1.77. For the same molecule, the Activity (MCF7) was “Active” and the Ratio (Mus musculus [4]) was 1.75.
`O=C(/C=C/c1c(-c2ccccc2)no[n+]1[O-])c1ccccc1O` showed an Activity (Rattus norvegicus [10]) of 110%, an Activity (Rattus norvegicus [11]) of 40% and a Ratio [12] of 5. For the same molecule, the IC50 [13] was 38 µM, the Activity (Salmonella typhimurium [14]) was “Non-toxic” and the Activity (Salmonella typhimurium [15]) was “Non-toxic”. For the same molecule, the Activity (Rattus norvegicus [16]) was “Active”, the CD (Mus musculus [17]) was 8 µM and the Ratio (Mus musculus [18]) was 1.5. For the same molecule, the fold change (FC) (Mus musculus [2]) was 1.82, the Activity (Rattus norvegicus [19]) was “Non-toxic” and the survival at 2 weeks [20] was 100%. The Activity (Rattus norvegicus [21]) was 80%, the Ratio [22] was 3.2 and the CD (Mus musculus [23]) was 12 µM. The Activity (Rattus norvegicus [24]) was “Active”, the Activity (HT-29) was “Active” and the fold change (FC) (Mus musculus [3]) was 3.01. For the same molecule, the Activity (Rattus norvegicus [25]) was “Non-toxic”, the Activity (MCF7) was “Active” and the Ratio (Mus musculus [4]) was 1.65. The IC50 [26] was 40 µM, the Activity [27] was “Active” and the Activity (Rattus norvegicus [28]) was “Active”.
In the case of `Cc1c(/C=C/C(=O)c2ccc3ccccc3c2)no[n+]1[O-]`, the Activity (Salmonella typhimurium [1]) is reported as “Non-toxic”, the fold change (FC) (Mus musculus [2]) is reported as 0.99 and the Activity (HT-29) is reported as “Active”. The fold change (FC) (Mus musculus [3]) was 1.49, the Activity (MCF7) was “Active” and the Ratio (Mus musculus [4]) was 1.5. For the same molecule, the Activity (Salmonella typhimurium [5]) was “Non-toxic”.
